We go through two substances from patent publication US20240288446A1, “METHOD FOR DIAGNOSING FIBRINOLYTIC INSUFFICIENCY RELATED TO NEUTROPHIL EXTRACELLULAR TRAPS” (Hôpitaux Universitaires de Strasbourg, priority 2019, published 2024).

Entries after “also recorded” stand apart in the source; their conditions may differ.

Holding throughout (type): biochemical
The target in data set [1] is T1, HNE-DNA complexes of fibrin-NETs lattice (Homo sapiens, UniProt P08246).
T1 construct: endogenous in cells
T1 sequence (P08246 30-247 limits assumed): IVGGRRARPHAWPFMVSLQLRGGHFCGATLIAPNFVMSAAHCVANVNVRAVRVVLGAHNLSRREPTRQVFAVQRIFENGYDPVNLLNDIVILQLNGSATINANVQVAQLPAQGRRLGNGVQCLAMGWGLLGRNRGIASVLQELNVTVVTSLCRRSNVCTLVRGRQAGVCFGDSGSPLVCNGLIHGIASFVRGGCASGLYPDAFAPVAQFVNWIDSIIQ
Put plainly: Plasminogen activation by fibrin-bound tPA on fibrin-NETs matrices (plasmin formation). The protocol: FIGS. 3A-D represent the decrease in tPA-mediated plasmin formation by NETs formed onto fibrin. Neutrophils isolated from human blood were seeded onto fibrin in a 96-wells microtitre plate and activated by 50 nM PMA in HBSS. After binding of tPA to fibrin, plasminogen at varying concentrations was added to the interlaced NETs-fibrin structure. FIG. 3A-B. Plasmin formation from plasminogen (Pg) at 50 nM (A) and 500 nM (B) was monitored by measuring the released of pNA the plasmin-selective chromogenic substrate at 0.75 mM. Plasmin formation on fibrin. ● Plasmin formation on fibrin-NETs. ▪ Plasmin formation on fibrin-NETs treated with the elastase inhibitor MeO-Suc-AAPV-CMK. FIG. 3 C. After plasminogen activation the wells were carefully washed and the amount of fibrin-bound plasmin detected by adding 0.75 mM of the plasmin-selective chromogenic substrate. Grey bars: plasmin bound to the fibrin-NETs surface. […]
Fibrin-NETs matrices were achieved by activation with PMA of neutrophils seeded onto fibrin surfaces prepared as described above. […] Initial velocities of the reaction were calculated using an ad hoc computer program. • 2. […] HNE activity in samples collected in HBSS was measured with the chromogenic substrate MeO-Suc-AAPV-pNA (100 μl per well, 1.5 mM final concentration in HBSS) as indicated above. […]

The target in data set [2] is T2, HNE-DNA complexes of NETs (Homo sapiens, UniProt P08246).
T2 construct: endogenous in cells
T2 sequence (P08246 30-247 limits assumed): T1 sequence (P08246 30-247 limits assumed)
Put plainly: Activity of DNA-bound elastase on NETs, chromogenic substrate MeO-Suc-AAPV-pNA. The following applies: NETs from PMA-stimulated neutrophils, MeO-Suc-AAPV-CMK 100 μM, α1-PI 10 μM, aprotinin 10 μM (FIG. 1B legend). The protocol:
FIGS. 1A-C represent Neutrophil Extracellular Traps (NETs) generated from neutrophils seeded onto a fibrin matrix: DNA and HNE activity of NETs are shown. Neutrophils isolated from human blood and seeded on wells of a 96-wells microtiter plate containing or not a fibrin matrix, were activated by 50 nM PMA in HBSS. After 4 hours incubation at 37° C. in a humidified 5% CO2 incubator, the plate was centrifuged at 3000 g for 5 min, the supernatant was collected and cells and NETs in the well stained with a 10 μg/ml solution of Hoechst 33342 a minor-groove DNA binder. Elastase activity bound to NETs was detected with the chromogenic substrate N-methoxysuccinyl-Ala-Ala-Pro-Val-p-nitroanilide. FIG. 1A represents fluorescence microscopy images (X20) of nuclei and extracellular DNA fibers stained with Hoechst. Scale bars: 20 μm. […] NETs: neutrophil extracellular traps generated in the absence of fibrin. […] C. […] Purified HNE was incubated (15 min) at different concentrations in buffer or plasma before activity measurements with 1.5 mM of the chromogenic substrate N-methoxysuccinyl-Ala-Ala-Pro-Val-p-nitroanilide.
NETs were identified by (1) DNA staining with a 10 μg/ml solution of Hoechst 33342 and (2) measuring the activity of DNA-bound elastase.
To detect elastase bound to NETs, the substrate MeO-Suc-AAPV-pNA (100 μl per well, 1.5 mM final concentration in HBSS) was incubated with NETs after two gentle washes with HBSS. DNA-bound HNE activity was detected in a multi-well plate counter at 37° C. by measuring the release of p-nitroaniline (pNA) at A405 nm.

Data set [3] concerns the target T2, HNE-DNA complexes of NETs. Put plainly: Plasminogen fragmentation by NETs-bound elastase (SDS-PAGE, Western blot). The note with it: plasminogen 1 μM; NETs pre-incubated with inhibitor. On the procedure:
FIGS. 2A-C represent NETs-associated elastase digests plasminogen into fragments. Samples were analyzed by SDS-PAGE and Western blot using a specific sheep antibody directed against human plasminogen. FIG. 2A-B. Plasminogen fragmentation by NETs HNE•DNA complexes after 30 to 240 min (A) and 2 to 10 hours (B) of incubation. C. Western blot of purified plasminogen (Pg), plasmin (Pn) (left panel) and HNE-DNA-derived plasminogen fragments (middle panel). Plasminogen fragments produced by PMA stimulated neutrophils (middle panel) were not observed (right panel) in the presence of the elastase-specific inhibitor (EI) N-Methoxysuccinyl-Ala-Ala-Pro-Val-chloromethyl ketone.
Fibrin-NETs matrices were achieved by activation with PMA of neutrophils seeded onto fibrin surfaces prepared as described above. The neutrophils were seeded onto the fibrin matrix at 200 000 cells per well and were stimulated with PMA after 1 h plating as indicated above. […] Initial velocities of the reaction were calculated using an ad hoc computer program. • 2. […] HNE activity in samples collected in HBSS was measured with the chromogenic substrate MeO-Suc-AAPV-pNA (100 μl per well, 1.5 mM final concentration in HBSS) as indicated above. […] Signal was detected using the ECL kit from Amersham (Arlington Heights, U.K.) and the Curix-60-AGFA for development. […]
On the technique in general: In western blotting, separated proteins are transferred to a membrane and probed.

With “N-(Methoxysuccinyl)-L-alanyl-L-alanyl-L-prolyl-L-valine chloromethylketone [MeO-Suc-AAPV-CMK]”, the “decrease of plasmin formed and remaining bound to untreated fibrin-NETs lattices compared with lattices in the presence of inhibitor” value in data set [1] (FIG. 3C) is listed as “around 50%”. Besides, the “plasmin formation / fibrinolytic activity at the fibrin-NET lattice” value in data set [1] (fibrin-NET lattice pre-incubated with inhibitor, tPA bound to fibrin) is “restored to control values”. Besides, in data set [2], the “effect on proteolytic activity of HNE-DNA complexes of NETs” value is given as “completely blocked; also recorded: completely inhibited”. In data set [3], the “effect on conversion of plasminogen into fragments by NETs” value is recorded as “abolished the conversion of plasminogen into fragments; also recorded: plasminogen fragments were absent”.
Turning to Aprotinin, the “effect on proteolytic activity of HNE-DNA complexes of NETs” value in data set [2] was “without effect”; in data set [2] (listed as aprotinin), “unable to modify”. Besides, the “effect on conversion of plasminogen into fragments by NETs” value in data set [3] is “unable to modify”.
